Columns and labels:
[1] = system: Pancreatic Ductal Adenocarcinoma #03; assay: Evaluation against early stage pancreatic ductal adenocarcinoma #03 in BDF mice; assay type: in vivo
Text: Male BDF mice (12 weeks old, weight approximately 28.9 g) were implanted with the pancreatic ductal cell carcinoma #03 3 days before beginning treatment with (HO)2DEHSPM.

[2] = system: pancreatic native polyamine pools; assay: Tissue drug and native polyamine levels (pancreas, liver) in treated dogs; assay type: in vivo, beagles
Text: The two dogs (#490 and 494) were fed a prescription canned and dry dog food and were supplemented with Viokase, a pancreatic enzyme preparation, by mixing three tablets with food or by oral administration immediately before each feeding. The dogs were maintained on this regimen for approximately three weeks. During this time, their weight and blood chemistries were closely monitored. The Viokase supplementation was then stopped and the same parameters were again evaluated. One week after the Viokase administration had ceased, the animals were euthanized and tissues were taken for histology and for the determination of tissue polyamine levels.
As the pancreatic insufficiency side-effect that was observed after the administration of the (R,R)—(HO)2DEHSPM to the beagles may have been related to the (R,R)-chirality of the molecule, the (S,S)-enantiomer was synthesized and was compared in a head-to-head fashion with the (R,R)-enantiomer. To perform this experiment, five male beagles approximately 6-8 months of age were obtained from Harlan Sprague Dawley. There were provided with food and water ad libitum and were allowed to acclimate to their new surroundings for two weeks. The animals were weighed prior to starting drug administration and were weighed once per week during the drug dosing period. A CBC and chemistry panel and a Holter monitor were performed once per week. In addition to the usual tests, additional pancreatic function-specific tests were also performed. These additional evaluations included a fecal trypsin test, examination of the feces for fecal fat and serum trypsin-like immunoreactivity determinations. It was hoped that these signs of pancreatic insufficiency would only appear in the animals given the (R,R)-enantiomer and would not be observed in the dogs that were given the (S,S)-molecule. The pancreatic insufficiency may not become evident until approximately 7-8 weeks post-drug. At the conclusion of the experiment, all of the animals were sacrificed and the histology and tissue polyamine levels were determined.
• 1. Dogs #468 and 500 were given (R,R)—(HO)2DEHSPM subcutaneously twice daily for 13 days. • 2. They were fed Purina Dog Chow ad libitum and given free access to water. • 3. Polyamine levels in the pancreas were also analyzed at several time points post-drug. • 4. At the start of the experiment, dog #468 weighed 14.4 kg and dog #500 weighed 12.8 kg. The latter animal's weight never exceeded 13.2 kg. At the end of the drug dosing period, dog #468 weighed 13.0 kg, a loss of 1.4 kg; dog #500 weighed 13.2 kg, a gain of 0.4 kg. • 5. […] The pancreatic native polyamine pools (most especially SPD) were markedly diminished compared to untreated control tissue: [SPM]control=3,985 μm v. [SPM10-days post-treatment=2,548 μm (64% of control) [SPD]control=2,820 μm v [SPD]10-days post-treatment=721 μm (25.6% of control) • 6. Dog #468 was bright, alert and responsive until day thirteen of drug administration. […] The dog was fed boiled chicken and rice, as well as Nutrical (a caloric supplement) and cat food and was slowly weaned back to regular dog food. Frank and/or occult blood was found in the dog's stool until about 17-days post-drug. • 7. Dog #500 was bright, alert and responsive throughout the experiment. […] However, stool consistency had normalized by one week post-drug. • 8. […] The inability to digest fats was confirmed when this test was repeated and the fatty meal was supplemented with Viokase (a pancreatic enzyme supplement). […] (2.15 mg/kg every 12 hours) for 13 days • Route: subcutaneously • 1. Dogs #440 and 476 were given (S,S)— (HO)2DEHSPM subcutaneously twice daily for 13 days. • […]. They were fed Purina Dog Chow ad libitum and given free access to water. • 3. At the start of the experiment, dog #440 weighed 11.8 kg.
Two animals were also treated with DEHSPM at a dose equimolar to the (HO)2DEHSPM dosage and sacrificed at 1- and 75-days after the final treatment. […]

[3] = system: human pancreatic cell carcinoma line PANC-1; assay: IC50 assays in PANC-1 cells; assay type: cell-based
Procedure: (OH)2DEHSPM was tested in a series of IC50 assays in the human pancreatic cell carcinoma line PANC-1 (doubling time 36 hr.).

[4] = group 2, total dosage 240 mg/kg IV
[5] = group 4, total dosage 205 mg/kg IV
[6] = group 6, total dosage 102.5 mg/kg IV

SMILES: CCNCC[C@@H](O)CNCCCCNC[C@H](O)CCNCC.Cl.Cl.Cl.Cl [(R,R)-(HO)2DEHSPM, N^1,N^14-Diethyl-3(R) 12(R)-dihydroxyhomospermine tetrahydrochloride]
- Percent Body Wt. Loss ([1]; group 2, tumor-bearing, IV QD 3, 4, 6-9, 14, 17, 18, total dosage 240 mg/kg): 38%
- Drug Deaths (days of death) ([1]; group 2, tumor-bearing, total dosage 240 mg/kg IV): none of the mice died
- Comments [1, 4]: Inactive
- Median Tumor Burden (mg) on day 18 (range) [1, 4]: 651 (138-1324) mg
- Tumor Free on Day [1, 4]: 0/5
- T/C % ([1]; group 2, total dosage 240 mg/kg IV, tumor burden vs control): 64%
- Percent Body Wt. Loss ([1]; group 4, tumor-bearing, IV QD 3-18, total dosage 205 mg/kg): somewhat less dramatic
- Median Tumor Burden (mg) on day 18 (range) [1, 5]: 172 (63-965) mg
- T-C [1, 5]: 9 days
- Time to 1000 mg days (range) [1, 5]: 26.8 (18-28) days
- Tumor Free on Day [1, 5]: 0/5
- Log Kill ([1]; group 4, total dosage 205 mg/kg IV, Td = 3.5 days): 0.8
- Percent Body Wt. Loss ([1]; group 6, tumor-bearing, IV QD 3-18, total dosage 102.5 mg/kg): no significant weight loss
- Comments [1, 6]: Inactive
- Median Tumor Burden (mg) on day 18 (range) [1, 6]: 617 (270-748) mg
- Tumor Free on Day [1, 6]: 0/5
- liver concentration of drug (parent+metabolite) ([2]; 10-days post-drug): 500 μm
- pancreatic concentration of drug (parent+metabolite) ([2]; 10-days post-drug): exceeded 1,000 μm
- [SPD] in pancreas ([2]; 10-days post-treatment): 721 μm
- [SPD] in pancreas, % of control ([2]; 10-days post-treatment): 25.6 % of control
- [SPM] in pancreas ([2]; 10-days post-treatment): 2,548 μm
- [SPM] in pancreas, % of control ([2]; 10-days post-treatment): 64 % of control
- [SPD] in pancreas ([2]; 52-days post-treatment): 156 μm
- [SPD] in pancreas, % of control ([2]; 52-days post-treatment): 5.5 % of control
- [SPM] in pancreas ([2]; 52-days post-treatment): 860 μm
- [SPM] in pancreas, % of control ([2]; 52-days post-treatment): 21.6 % of control
- native polyamine levels in pancreas ([2]; 75-, 78-, 88- and 92-days post-treatment): stabilized, but at a much lower level than the control pancreas
- drug remaining in pancreas ([2]; 75-, 88- and 92-day post-treatment samples): almost completely washed out
- total drug concentration (parent+metabolite) in pancreas ([2]; at necropsy (52-days post-treatment) vs 10-days post-treatment): remained virtually unchanged
- IC50 ([3]; time point 96 hr.): > 100000 nM
- IC50 ([3]; time point 144 hr.): 500 nM
- IC50 ([3]; time point 240 hr.): 120 nM
